Test results reported in US6525001B1, “Substituted pyrimidine and pyridine herbicides” (Mid-American Commercialization Corporation, priority 1997, dated 2003).

Tests used:
Assay type in all cases: in vivo
[1] = tested on: broadleaf signalgrass (Brachiaria decumbens); test: Test B pre-/postemergence; design: key: 0 is no effect; 10 is complete control
Method in brief: (§1)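 Seeds were planted and sprayed preemergence, while plants at 2 to 18 cm (1- to 4-leaf stage) were sprayed postemergence at the same time, with test chemical in a non-phytotoxic solvent mixture containing surfactant. After twelve to sixteen days in a greenhouse, injury was rated visually against untreated controls on a 0–10 scale.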

[2] = tested on: blackgrass (Alopecurus myosuroides); test: Test B pre-/postemergence; design: key: 0 is no effect; 10 is complete control
Method in brief: as §1

[3] = tested on: cocklebur (Xanthium strumarium); test: Test C; design: key: 0 was no effect; 100 was complete control; details: PREEMERGENCE
[4] = tested on: cotton (Gossypium hirsutum); test: Test C; design: key: 0 was no effect; 100 was complete control; details: PREEMERGENCE
[5] = tested on: common ragweed (Ambrosia elatior); test: Test C; design: key: 0 was no effect; 100 was complete control; details: PREEMERGENCE
[6] = tested on: purple nutsedge (Cyperus rotundus); test: Test C; design: key: 0 was no effect; 100 was complete control; details: PREEMERGENCE
[7] = tested on: bamyardgrass (Echinochloa crus-galli); test: Test B flood test; design: key: 0 is no effect; 10 is complete control
Method in brief: (§2)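 Plants were grown to the 2-leaf stage before treatment with test chemical, then held in a greenhouse for twelve to sixteen days. Injury was visually rated against untreated controls on a 0–10 scale, where 0 is no effect and 10 is complete control.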

[8] = tested on: smallflower flatsedge (Cyperus difformis); test: Test B flood test; design: key: 0 is no effect; 10 is complete control
Method in brief: as §2

[9] = tested on: duck salad (Heteranthera limosa); test: Test B flood test; design: key: 0 is no effect; 10 is complete control
Method in brief: as §2

rice (Oryza sativa) = test: Test B flood test; design: key: 0 is no effect; 10 is complete control
Method in brief: as §2

[10] = tested on: field bindweed (Convolvulus arvensis); test: Test C; design: key: 0 was no effect; 100 was complete control; details: PREEMERGENCE
[11] = Rate 62 g/ha, Postemergence (flood test)
[12] = Rate 125 g/ha, Postemergence, flood test
[13] = Rate 250 g/ha, Postemergence (flood test species)
[14] = Rate 125 g/ha, Postemergence section (flood test species)
[15] = Rate 500 g/ha, Postemergence (flood test species)

Row | SMILES | Plant response rating, Blackgrass ([2]; Rate 62 g/ha, Postemergence) | Blackgrass plant response rating ([2]; Rate 62 g/ha, Preemergence) | Plant response rating, Blackgrass ([2]; Rate 125 g/ha, Postemergence) | Blackgrass plant response rating ([2]; Rate 125 g/ha, Preemergence) | Plant response rating, Blackgrass ([2]; Rate 250 g/ha, Postemergence) | Plant response rating, Cocklebur ([3]; Rate 35 g/ha) | Plant response rating, Cocklebur ([3]; Rate 140 g/ha) | Plant response rating, Cotton ([4]; Rate 35 g/ha) | Plant response rating, Cotton ([4]; Rate 70 g/ha) | Plant response rating, Cotton ([4]; Rate 140 g/ha) | Plant response rating, Common ragweed ([5]; Rate 35 g/ha) | Plant response rating, Common ragweed ([5]; Rate 70 g/ha) | Plant response rating, Common ragweed ([5]; Rate 140 g/ha) | Plant response rating, Barnyardgrass [7, 11] | Plant response rating, Barnyardgrass [7, 12] | Plant response rating, Barnyardgrass [7, 13] | Plant response rating, S. Flatsedge [8, 11] | Plant response rating, S. Flatsedge [8, 13] | Plant response rating, Ducksalad [9, 11] | Plant response rating, Ducksalad [9, 12] | further results
1 | Cc1cnc(-c2ccc(C(F)(F)F)cc2)nc1C(Cl)c1cccc(C(F)(F)F)c1 (racemic) [Compound 21] | 3 | 1 | 4 | 3 | 6 | 0 | 0 | 0 | 5 | 20 | 0 | 0 | 20 | 3 | 4 | 4 | 6 | 9 | 3 | 4 | Plant response rating, B. signalgrass ([1]; Rate 62 g/ha, Postemergence): 3; B. signalgrass plant response rating ([1]; Rate 62 g/ha, Preemergence): 2; Plant response rating, B. signalgrass ([1]; Rate 125 g/ha, Postemergence): 4; B. signalgrass plant response rating ([1]; Rate 125 g/ha, Preemergence): 3; Plant response rating, B. signalgrass ([1]; Rate 250 g/ha, Postemergence): 7; Plant response rating, B. signalgrass ([1]; Rate 250 g/ha, Preemergence): 8; Plant response rating, Blackgrass ([2]; Rate 250 g/ha, Preemergence): 5; Plant response rating, Cocklebur ([3]; Rate 70 g/ha): 0; Plant response rating, Purple nutsedge ([6]; Rate 35 g/ha): 0; Plant response rating, Purple nutsedge ([6]; Rate 70 g/ha): 0; Plant response rating, Purple nutsedge ([6]; Rate 140 g/ha): 0; Plant response rating, S. Flatsedge [8, 12]: 8; Plant response rating, Ducksalad [9, 13]: 5; Plant response rating, Rice (rice (Oryza sativa); [11]): 3; Plant response rating, Rice (rice (Oryza sativa); [12]): 4; Plant response rating, Rice (rice (Oryza sativa); [13]): 5; Plant response rating, Field bindweed ([10]; Rate 70 g/ha): 40; Plant response rating, Field bindweed ([10]; Rate 140 g/ha): 40
2 | Cc1cnc(-c2ccc(C(F)(F)F)cc2)nc1Cc1cccc(OC(F)(F)F)c1 [Compound 15] | 6 | 9 | 9 | 10 | 9 | 0 | 5 | 5 | 10 | 10 | 10 | 20 | 75 | 6 | 8 | 9 | 7 | 9 | 6 | 6 | Plant response rating, B. signalgrass ([1]; Rate 62 g/ha, Postemergence): 4; B. signalgrass plant response rating ([1]; Rate 62 g/ha, Preemergence): 9; Plant response rating, B. signalgrass ([1]; Rate 125 g/ha, Postemergence): 4; B. signalgrass plant response rating ([1]; Rate 125 g/ha, Preemergence): 9; Plant response rating, B. signalgrass ([1]; Rate 250 g/ha, Postemergence): 8; Plant response rating, B. signalgrass ([1]; Rate 250 g/ha, Preemergence): 9; Plant response rating, Blackgrass ([2]; Rate 250 g/ha, Preemergence): 10; Plant response rating, Cocklebur ([3]; Rate 70 g/ha): 0; Plant response rating, Purple nutsedge ([6]; Rate 35 g/ha): 0; Plant response rating, Purple nutsedge ([6]; Rate 70 g/ha): 0; Plant response rating, Purple nutsedge ([6]; Rate 140 g/ha): 0; Plant response rating, S. Flatsedge [8, 12]: 8; Plant response rating, Ducksalad [9, 13]: 7; Plant response rating, Rice (rice (Oryza sativa); [11]): 6; Plant response rating, Rice (rice (Oryza sativa); [12]): 7; Plant response rating, Rice (rice (Oryza sativa); [13]): 7; Plant response rating, Field bindweed ([10]; Rate 35 g/ha): 65; Plant response rating, Field bindweed ([10]; Rate 70 g/ha): 100; Plant response rating, Field bindweed ([10]; Rate 140 g/ha): 100
3 | CCc1cnc(-n2ccc(C(F)(F)F)n2)nc1Cc1cccc(C(F)(F)F)c1 [Compound 46] | 4 | 8 | 5 | 8 | 6 | 0 | 5 | 0 | 5 | 40 | 10 | 20 | 80 | 2 | 3 | 4 | 4 | 7 | 1 | 1 | Plant response rating, B. signalgrass ([1]; Rate 62 g/ha, Postemergence): 3; B. signalgrass plant response rating ([1]; Rate 62 g/ha, Preemergence): 9; Plant response rating, B. signalgrass ([1]; Rate 125 g/ha, Postemergence): 4; B. signalgrass plant response rating ([1]; Rate 125 g/ha, Preemergence): 9; Plant response rating, B. signalgrass ([1]; Rate 250 g/ha, Postemergence): 5; Plant response rating, B. signalgrass ([1]; Rate 250 g/ha, Postemergence as printed in head r139 (second section for compounds 26-50)): 9; Plant response rating, Blackgrass ([2]; Rate 250 g/ha, Postemergence (so in the source)): 10; Plant response rating, Cocklebur ([3]; Rate 70 g/ha): 10; S. Flatsedge plant response rating [8, 14]: 5; Plant response rating, Ducksalad [9, 13]: 4; Plant response rating, Rice (rice (Oryza sativa); [11]): 1; Rice plant response rating (rice (Oryza sativa); [14]): 2; Plant response rating, Rice (rice (Oryza sativa); [13]): 4; Plant response rating, Field bindweed ([10]; Rate 35 g/ha): 10; Plant response rating, Field bindweed ([10]; Rate 70 g/ha): 70; Plant response rating, Field bindweed ([10]; Rate 140 g/ha): 100
4 | Cc1cnc(-n2ccc(C(F)(F)F)n2)nc1Cc1cccc(C(F)(F)F)c1 [Example 2, 5-methyl-4-[[3-(trifluoromethyl)phenyl]methyl]-2-[3-(trifluoromethyl)-1H-pyrazol-1-yl]pyrimidine] | 3 | 3 | 6 | 7 | 7 | 0 | 10 | 0 | 5 | 15 | 0 | 0 | 50 | 3 | 4 | 5 | 3 | 8 | 0 | 0 | Plant response rating, Blackgrass ([2]; Rate 250 g/ha, Preemergence): 10; Plant response rating, Blackgrass ([2]; Rate 500 g/ha, Postemergence): 9; Plant response rating, Blackgrass ([2]; Rate 500 g/ha, Preemergence): 10; Plant response rating, Purple nutsedge ([6]; Rate 35 g/ha): 0; Plant response rating, Purple nutsedge ([6]; Rate 70 g/ha): 0; Plant response rating, Purple nutsedge ([6]; Rate 140 g/ha): 0; Plant response rating, Barnyardgrass [7, 15]: 6; Plant response rating, S. Flatsedge [8, 12]: 5; Plant response rating, S. Flatsedge [8, 15]: 9; Plant response rating, Ducksalad [9, 13]: 2; Plant response rating, Ducksalad [9, 15]: 2; Plant response rating, Rice (rice (Oryza sativa); [11]): 3; Plant response rating, Rice (rice (Oryza sativa); [12]): 4; Plant response rating, Rice (rice (Oryza sativa); [13]): 5; Plant response rating, Rice (rice (Oryza sativa); [15]): 6; Plant response rating, Field bindweed ([10]; Rate 35 g/ha): 0; Plant response rating, Field bindweed ([10]; Rate 70 g/ha): 30; Plant response rating, Field bindweed ([10]; Rate 140 g/ha): 100
